Reference: PubChem BioAssay (NCI)
Values joined by “and” are separate entries in the source; they are usually repeats but may differ in a detail not shown here. Equal values may be shown once.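 Test compounds were applied to cells in 96-well plates for 48 hours at 5 doses. The concentration for 50% growth inhibition is given as GI50. TGI is the concentration that stops growth completely.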

How the values were obtained:
Experiment in all cases: DTP human tumour cell line panel, 48 h
M14 melanoma = tested on: M14 melanoma
COLO 205 colon = tested on: COLO 205 colon
OVCAR-5 ovarian = tested on: OVCAR-5 ovarian
SNB-75 CNS = tested on: SNB-75 CNS
CCRF-CEM leukemia = tested on: CCRF-CEM leukemia
HCC-2998 colon = tested on: HCC-2998 colon
ACHN renal = tested on: ACHN renal
SF-268 CNS = tested on: SF-268 CNS
SNB-19 CNS = tested on: SNB-19 CNS
MCF7 breast = tested on: MCF7 breast

| Compound | GI50 (M14 melanoma) [µM] | TGI (M14 melanoma) [µM] | GI50 (COLO 205 colon) [µM] | TGI (COLO 205 colon) [µM] | GI50 (OVCAR-5 ovarian) [µM] | TGI (OVCAR-5 ovarian) [µM] | GI50 (SNB-75 CNS) | TGI (SNB-75 CNS) | GI50 (CCRF-CEM leukemia) [µM] | TGI (CCRF-CEM leukemia) [µM] | GI50 (HCC-2998 colon) [µM] | TGI (HCC-2998 colon) [µM] | GI50 (ACHN renal) | TGI (ACHN renal) [µM] | GI50 (SF-268 CNS) [µM] | TGI (SF-268 CNS) | GI50 (SNB-19 CNS) [µM] | TGI (SNB-19 CNS) [µM] | GI50 (MCF7 breast) [µM] | TGI (MCF7 breast) [µM] |
| --- | --- | --- | --- | --- | --- | --- | --- | --- | --- | --- | --- | --- | --- | --- | --- | --- | --- | --- | --- | --- |
| CCN(CC)CCCC(Cc1ccccc1)Nc1c2ccc(Cl)cc2nc2ccc(OC)cc12 (configuration not stated) | 1.82 | 3.51 | 1.61 | 3.37 | 2.67 | 12.7 | 1.62 µM | 3.65 µM | 2 | 6.51 | 1.61 | 3.3 | 2.01 µM | 4.5 | 2.14 | 5.84 µM | 2.56 | 7.17 | 1.54 | 3.35 |
| COC(=O)/C(=N\NC(=S)NN)C(C(=O)OC)C(=O)C(=O)Nc1cccc(C(F)(F)F)c1 (configuration not stated) |  | > 100 |  |  |  | > 100 |  | > 100 µM |  | > 100 |  | > 100 |  | > 100 |  | > 100 µM |  | > 100 |  | > 100 |
| COc1ccc2c(c1)/C(=C\c1c(Cl)n(C)c3ccccc13)C(=O)N2 | 1.61 | 23.8 | 0.721 | 4.36 | 3.94 | 15.3 | 1.67 µM | 23.6 µM | 3.53 | > 100 | 0.306 | 1.08 | 1.6 µM | 16.2 | 2.87 | 35.1 µM | 1.85 | 23 | 0.682 | > 38.7 |
| COc1cccc(Cn2c(-c3nonc3NC(C)=O)nc3ccccc32)c1 | 4.02 | > 100 | 3.45 | > 100 | 4.04 | > 100 | 0.144 µM | 3.85 µM | > 100 | > 100 | 5.83 | > 100 | 8.41 µM | > 100 | 7.82 | > 100 µM | 7.15 | > 100 | 4.04 | > 100 |
| CSc1nc(C)c(Br)c(=O)n1C1OC(COC(C)=O)C(OC(C)=O)C(OC(C)=O)C1OC(C)=O (configuration not stated) |  | > 100 |  | > 100 |  | > 100 | 10.5 µM and 26.5 µM | 51.8 µM and 65.1 µM |  | > 100 |  | > 100 | > 100 µM and 35.4 µM | > 100 |  | > 100 µM and 44.2 µM | 51.8 | > 100 |  | > 100 |
| CCC(c1ccc2cc(O)ccc2c1)C(C)(C)C(=O)O (configuration not stated) |  | > 100 |  | > 100 |  | > 100 |  | > 100 µM |  |  |  | > 100 |  | > 100 |  | > 100 µM |  | > 100 |  | > 100 |
| O=C1c2cc([N+](=O)[O-])cc3cc([N+](=O)[O-])cc(c23)C(=O)N1CCCNCCNCCCN1C(=O)c2cc([N+](=O)[O-])cc3cc([N+](=O)[O-])cc(c23)C1=O |  | 3.31 |  | 0.849 |  | 6.68 |  | 2.57 µM |  | 6.46 |  | 1.51 |  | > 23.2 |  | 2.03 µM |  | > 23.3 |  | 11.7 |
| O=C1/C(=C/c2ccccc2F)CN(C(=O)C(Cl)Cl)C/C1=C\c1ccccc1F | 0.387 | 1.61 | 0.711 | 2.57 | 0.796 | 2.29 | 0.572 µM | 1.95 µM | 0.106 | > 100 | 0.696 | 1.96 | 0.327 µM | 1.09 | 0.916 | 3.72 µM | 0.349 | 1.46 | 0.101 | 0.983 |
| Cc1cc(=O)oc2c(OS(C)(=O)=O)c(OS(C)(=O)=O)ccc12 |  | > 100 |  | > 100 |  | > 100 |  |  |  | > 100 |  | > 100 |  | > 100 |  | > 100 µM |  | > 100 |  | > 100 |
| Nc1ccc(-c2nc3ccccc3o2)cc1S | 15.5 | 36.7 | 27.5 | > 100 | 19.2 | 45.3 |  |  | 14 | 43.3 | 14.4 | 32.2 | 12.1 µM | 24.4 | 15 | 34.5 µM | 22.9 | 81.3 | 12.1 | 38.3 |
| COC1=CC(c2ccc[nH]2)=N/C1=C\c1[nH]c(C)c(C(C)=O)c1C |  |  | 0.79 | > 100 | > 100 | > 100 |  |  | 0.0183 | > 100 | 2.08 | > 100 | 0.67 µM | > 55.8 | 0.854 | > 100 µM | 24.2 | > 100 | 1.05 | > 100 |
| Clc1ccc(C2=NN[C@H](c3cn(-c4ccccc4)nc3-c3ccccc3)C2)cc1 | 7.67 | 32.1 | 4.63 | 22.4 |  |  | 2.15 µM | 5.29 µM | 8.23 | 45.3 | 11.4 | > 100 |  |  | 5.71 | 21.2 µM | 7.08 | 24.8 | 4.8 | 17.9 |
| C=C(C)[C@@H]1CC[C@]2(C(=O)O)CC[C@]3(C)[C@H](CC[C@@H]4[C@@]5(C)C/C(=C/c6ccc(OC)cc6)C(=O)C(C)(C)[C@@H]5CC[C@]43C)[C@@H]12 | 1.67 | 3.9 |  |  | 3.2 | 12 | 2.68 µM | 27.1 µM |  |  | 2.1 | 5.73 | 2.77 µM | 10.5 | 2.85 | 17.4 µM | 3.07 | 17 | 2.59 | 7.74 |
| CCCC(=O)Nc1ccc2c(c1)CN1C(=O)c3ccccc3C1=N2 |  | > 100 |  | > 100 |  | > 100 |  | > 100 µM |  |  |  | > 100 |  | > 100 |  | > 100 µM |  | > 100 |  | > 100 |
| CSC1=Nc2c(c(C)c(C)n2COC(CO)CO)C2=NC(=O)CC(C)N12 (configuration not stated) |  |  | > 100 | > 100 | > 100 | > 100 | 30.7 µM | > 100 µM | 16.5 | 49.5 | > 100 | > 100 | > 100 µM | > 100 | > 100 | > 100 µM | > 100 | > 100 | > 100 | > 100 |
| CC(C(=O)O)/C(=C\c1ccc2c(c1)OCO2)C(=O)O (configuration not stated) |  | > 100 |  | > 100 |  | > 61.5 |  | > 100 µM |  |  |  | > 100 |  | > 100 |  | > 100 µM |  | > 100 |  | > 100 |
